{"source": "ChEMBL document CHEMBL5244246", "about": "“Recent advances in chemistry and bioactivity of marine cyanobacteria Moorea species” (Eur J Med Chem, 2020)", "key": {"[1]": {"test_system": "Nitzschia amabilis", "assay": "Growth inhibition of marine diatom assessed as inhibition rate at 10 ug/ml relative to control", "assay_type": "functional"}, "[2]": {"test_system": "NCI-H460", "assay": "Cytotoxicity against human NCI-H460 cells", "assay_type": "functional, cell-based"}, "[3]": {"test_system": "Mycobacterium tuberculosis", "assay": "Antimycobacterial activity against Mycobacterium tuberculosis H37Rv assessed as inhibition of bacterial growth at 12.5 ug/ml relative to control", "assay_type": "functional"}, "[4]": {"test_system": "HT-29", "assay": "Cytotoxicity against human HT-29 cells assessed as cell growth inhibition", "assay_type": "functional"}, "[5]": {"test_system": "A549", "assay": "Cytotoxicity against human A549 cells assessed as cell growth inhibition", "assay_type": "functional, cell-based"}, "[6]": {"test_system": "MDA-MB-231", "assay": "Cytotoxicity against human MDA-MB-231 cells assessed as cell growth inhibition", "assay_type": "functional"}, "[7]": {"test_system": "L1210", "assay": "Cytotoxicity against mouse L1210 cells assessed as inhibition of cell growth", "assay_type": "functional, cell-based"}, "[8]": {"assay": "Toxicity in shrimp assessed as lethal dose", "details": "palaemon paucidens"}, "[9]": {"assay": "Toxicity in brine shrimp assessed as lethal dose", "details": "artemia salina; read-out: LD50 (the source's name)"}, "[10]": {"test_system": "L1210", "assay": "Cytotoxicity against mouse L1210 cells assessed as inhibition of cell growth at 10 ug/mL relative to control", "assay_type": "functional", "details": "for inhibition at 10 µg/mL: Mus musculus, L1210, dose 10 µg/ml; for inhibition (INH): dose 10 µg/ml"}, "[11]": {"test_system": "MCF7", "assay": "Cytotoxicity against human MCF7 cells assessed as inhibition of cell growth", "assay_type": "functional, cell-based"}, "[12]": {"test_system": "HeLa", "assay": "Cytotoxicity against human HeLa cells assessed as inhibition of cell growth incubated for 48 hrs by WST-8 colorimetric assay", "assay_type": "functional, cell-based"}, "[13]": {"test_system": "N2a", "assay": "Cytotoxicity against mouse Neuro2a cells assessed as inhibition of cell growth", "assay_type": "functional, cell-based", "details": "n2a"}, "[14]": {"molecular_target": "Protein kinase C delta type (Homo sapiens, UniProt Q05655)", "sequence (Q05655 whole entry, the tested form may be a part)": "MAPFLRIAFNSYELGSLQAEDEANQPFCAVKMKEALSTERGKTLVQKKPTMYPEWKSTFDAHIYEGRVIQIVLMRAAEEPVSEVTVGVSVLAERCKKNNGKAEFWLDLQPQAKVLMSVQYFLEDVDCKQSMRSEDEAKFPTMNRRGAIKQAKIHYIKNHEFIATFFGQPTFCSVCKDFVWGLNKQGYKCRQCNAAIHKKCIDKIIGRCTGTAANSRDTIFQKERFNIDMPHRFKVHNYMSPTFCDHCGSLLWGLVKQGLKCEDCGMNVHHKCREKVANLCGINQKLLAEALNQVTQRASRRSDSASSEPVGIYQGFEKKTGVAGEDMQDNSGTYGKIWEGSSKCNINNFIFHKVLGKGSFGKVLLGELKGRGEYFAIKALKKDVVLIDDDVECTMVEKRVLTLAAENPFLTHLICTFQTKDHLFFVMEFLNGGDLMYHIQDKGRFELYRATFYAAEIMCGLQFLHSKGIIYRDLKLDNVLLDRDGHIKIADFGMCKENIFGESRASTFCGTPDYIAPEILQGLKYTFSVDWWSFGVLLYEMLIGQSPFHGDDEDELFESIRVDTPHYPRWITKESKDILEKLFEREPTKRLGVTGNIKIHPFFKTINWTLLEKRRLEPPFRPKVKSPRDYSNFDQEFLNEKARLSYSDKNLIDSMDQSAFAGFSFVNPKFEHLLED", "assay": "Inhibition of [3H]-PDBu binding to PKCdelta C1B domain (unknown origin) by competitive binding assay"}}, "note": "Where “and” joins values, the source holds several entries; their conditions need not be identical. Equal entries are not always repeated."}
{"molecule": "CO[C@@H](CC[C@H](C)[C@H]1O[C@@]23C[C@H](OC(=O)C[C@H]([C@@H](C)O)OC(=O)C[C@](O)(O2)[C@H](C)CC3(C)C)[C@@H]1C)c1cccc(O)c1", "note": "[DEBROMOAPLYSIATOXIN]", "values": [{"measurement": "inhibition at 10 µg/mL", "setting": "[1]", "value": 30, "unit": "%"}]}
{"molecule": "COc1ccc(C[C@@H]2NC(=O)/C(C)=C/C3CSC(=N3)[C@@H](C)[C@@H](O)C[C@H](C)C[C@@H](C(C)(C)C)OC(=O)[C@H](C)N(C)C(=O)[C@H](C(C)C)N(C)C(=O)[C@H](C)N(C)C2=O)cc1", "note": "(stereo partly specified)", "values": [{"measurement": "IC50", "setting": "[2]", "value": 0.014, "unit": "µM"}]}
{"molecule": "CCCCCCC[C@@H](C/C=C/CCC(=O)N(C)C/C(=C/Cl)C/C(=C\\C(=O)N1CC(OC)=CC1=O)OC)OC", "values": [{"measurement": "inhibition at 12.5 µg/mL", "setting": "[3]", "value": 10, "unit": "%"}, {"measurement": "GI50", "setting": "[4]", "value": 40, "unit": "µM"}, {"measurement": "GI50", "setting": "[5]", "value": 40, "unit": "µM"}, {"measurement": "GI50", "setting": "[6]", "value": 40, "unit": "µM"}]}
{"molecule": "CCCCCCC[C@@H](C/C=C/CCC(=O)N(C)C/C(=C\\Cl)C/C(=C\\C(=O)N1CC=CC1=O)OC)OC", "values": [{"measurement": "inhibition at 12.5 µg/mL", "setting": "[3]", "value": 10, "unit": "%"}, {"measurement": "GI50", "setting": "[4]", "value": 40, "unit": "µM"}, {"measurement": "GI50", "setting": "[5]", "value": 40, "unit": "µM"}, {"measurement": "GI50", "setting": "[6]", "value": 40, "unit": "µM"}]}
{"molecule": "CO[C@@H](CC[C@H](C)C1O[C@@]2(C=C[C@@H]1C)[C@H](C(=O)O[C@@H]1CC(=O)O[C@@H]1C)C(=O)[C@H](C)CC2(C)C)c1cccc(O)c1", "note": "(stereo partly specified)", "values": [{"measurement": "inhibition at 10 µg/mL", "setting": "[1]", "value": 30, "unit": "%"}]}
{"molecule": "CCCCCCCCC(O)C/C=C/CCC(=O)N(C)C/C(=C\\Cl)C/C(=C\\C(=O)N1CC(OC)=CC1=O)OC", "note": "(stereo unspecified)", "values": [{"measurement": "IC50", "setting": "[7]", "value": 2.9, "unit": "µM"}, {"measurement": "LD50", "setting": "[8]", "value": 33.3, "unit": "mg/kg"}]}
{"molecule": "COC(=O)C(CCCCCC(Cl)Cl)C(CCCC#CC=C(Cl)Cl)NC=O", "note": "(stereo unspecified)", "values": [{"measurement": "LC50", "setting": "[9]", "value": 1.7, "unit": "µg/mL"}]}
{"molecule": "CC[C@H](C)[C@H]1C(=O)N(C)[C@@H](C)C(=O)O[C@H](C(C)(C)C)C[C@@H](C)C[C@H](O)[C@H](C)C2=NC(/C=C(\\C)C(=O)N[C@@H](Cc3ccc(OC)cc3)C(=O)N(C)[C@@H](C)C(=O)N1C)CS2", "note": "(stereo partly specified)", "values": [{"measurement": "IC50", "setting": "[2]", "value": 0.002, "unit": "µM"}]}
{"molecule": "CO[C@@H](CC[C@H](C)[C@H]1O[C@]23C[C@H](OC(=O)C[C@H]([C@@H](C)O)OC(=O)C(O)C(=C(C)CC2(C)C)O3)[C@@H]1C)c1cc(O)ccc1Br", "note": "(stereo partly specified)", "values": [{"measurement": "inhibition at 10 µg/mL", "setting": "[10]", "value": 10, "unit": "%"}, {"measurement": "inhibition (INH)", "setting": "[10]", "value": 20, "unit": "%"}, {"measurement": "inhibition at 10 µg/mL", "setting": "[1]", "value": 30, "unit": "%"}]}
{"molecule": "COC(=O)[C@H](CCC#CC=C(Cl)Cl)[C@@H](CCCC#CCC(Cl)Cl)NC=O", "values": [{"measurement": "LC50", "setting": "[9]", "value": 1.7, "unit": "µg/mL"}]}
{"molecule": "COC(=O)C(CCC#CC=C(Cl)Cl)C(CCCC#CCC(Cl)Cl)NC=O", "note": "(stereo unspecified)", "values": [{"measurement": "LC50", "setting": "[9]", "value": 1.7, "unit": "µg/mL"}]}
{"molecule": "O=c1ccn([C@H]2C[C@H](O)[C@@H](CO)O2)c(=O)n1CCc1ccccc1", "values": [{"measurement": "IC50", "setting": "[11]", "value": 18.2, "unit": "µg/mL"}]}
{"molecule": "CO[C@@H](CC[C@H](C)[C@H]1OC2=C(/C(=C/C(=O)O[C@@H]3CC(=O)O[C@@H]3C)[C@H](C)CC2(C)C)[C@H](OC)[C@@H]1C)c1cc(O)ccc1Br", "values": [{"measurement": "inhibition at 10 µg/mL", "setting": "[1]", "value": 30, "unit": "%"}]}
{"molecule": "CO[C@@H](CC[C@H](C)[C@H]1O[C@@]2(C[C@H](OC)[C@@H]1C)OC(CC(=O)O[C@@H]1CC(=O)O[C@@H]1C)=C(C)CC2(C)C)c1cc(O)ccc1Br", "values": [{"measurement": "inhibition at 10 µg/mL", "setting": "[1]", "value": 30, "unit": "%"}]}
{"molecule": "CO[C@@H](CC[C@H](C)[C@H]1O[C@@]23C[C@H](OC(=O)C[C@H]([C@@H](C)O)OC(=O)/C=C(\\O2)[C@@](C)(O)CC3(C)C)[C@@H]1C)c1cccc(O)c1", "values": [{"measurement": "inhibition at 10 µg/mL", "setting": "[1]", "value": 30, "unit": "%"}]}
{"molecule": "CCCCCCCCCCC[C@]1(CO)CCCC(=O)O1", "note": "[TANIKOLIDE]", "values": [{"measurement": "LC50", "setting": "[9]", "value": 3.6, "unit": "µg/mL"}]}
{"molecule": "CO[C@@H](CC[C@H](C)[C@H]1O[C@]23C[C@H](OC(=O)C[C@@H]([C@@H](C)O)OC(=O)CC(=C(C)CC2(C)C)O3)[C@@H]1C)c1cccc(O)c1", "values": [{"measurement": "inhibition at 10 µg/mL", "setting": "[1]", "value": 30, "unit": "%"}]}
{"molecule": "CC[C@@H](C)[C@H]1C(=O)N2CCC[C@H]2C(=O)O[C@H](C(C)(C)C)C[C@@H](C)C[C@H](O)[C@H](C)C2=N[C@@H](/C=C(\\C)C(=O)N[C@@H](Cc3ccc(OCCCCCCCN=[N+]=[N-])cc3)C(=O)N(C)[C@@H](C)C(=O)N1C)CS2", "values": [{"measurement": "IC50", "setting": "[12]", "value": 0.08, "unit": "µM"}]}
{"molecule": "COC(=O)C(CCC#CC=C(Cl)Cl)C(CCC/C=C/CC(Cl)Cl)NC=O", "note": "(stereo unspecified)", "values": [{"measurement": "LC50", "setting": "[9]", "value": 1.7, "unit": "µg/mL"}]}
{"molecule": "CCCCCCC[C@@H](C/C=C/CCC(=O)O)OC", "values": [{"measurement": "inhibition at 12.5 µg/mL", "setting": "[3]", "value": 65, "unit": "%"}, {"measurement": "GI50", "setting": "[4]", "value": 40, "unit": "µM"}, {"measurement": "GI50", "setting": "[5]", "value": 40, "unit": "µM"}, {"measurement": "GI50", "setting": "[6]", "value": 40, "unit": "µM"}]}
{"molecule": "CCC[C@H]1NC(=O)c2csc(n2)[C@H](C)NC(=O)[C@H](C(C)C)N(C)C(=O)[C@H](Cc2ccccc2)N(C)C(=O)[C@H](C)OC(=O)[C@@H]1C", "note": "[ULONGAMIDE A]", "values": [{"measurement": "LC50", "setting": "[9]", "value": 18, "unit": "µM"}, {"measurement": "IC50", "setting": "[13]", "value": "6 µM and 16 µM"}]}
{"molecule": "CO[C@@H](CC[C@H](C)[C@H]1O[C@@]23C[C@H](OC(=O)C[C@@H]([C@@H](C)O)OC(=O)C[C@](OC)(O2)[C@H](C)CC3(C)C)[C@@H]1C)c1cc(O)ccc1Br", "values": [{"measurement": "inhibition at 10 µg/mL", "setting": "[1]", "value": 30, "unit": "%"}]}
{"molecule": "C=C[C@@](C)(CCC=C(C)C)c1ccc2c3c1NC(=O)[C@@]3(O)C[C@@H](CO)NC(=O)[C@@H](C(C)C)N2", "values": [{"measurement": "IC50", "setting": "[7]", "value": 321, "unit": "µM"}, {"measurement": "LD33", "setting": "[8]", "value": 25, "unit": "mg/kg"}, {"measurement": "Ki", "setting": "[14]", "value": 0.94, "unit": "µM"}]}
{"molecule": "CO[C@@H](CC[C@H](C)[C@H]1O[C@@]23C[C@H](OC(=O)C[C@H]([C@@H](C)O)OC(=O)/C=C(\\O2)[C@@](C)(O)CC3(C)C)[C@@H]1C)c1cc(O)ccc1Br", "values": [{"measurement": "inhibition at 10 µg/mL", "setting": "[10]", "value": 10, "unit": "%"}, {"measurement": "inhibition (INH)", "setting": "[10]", "value": 20, "unit": "%"}, {"measurement": "inhibition at 10 µg/mL", "setting": "[1]", "value": 30, "unit": "%"}]}
